Measured values reported in patent publication US20230390287A1, “MODULATORS OF PD-L1/PD-1 INTERACTION AND USES THEREOF” (Ramot at Tel-Aviv University Ltd., priority 2021, published 2023).
“Also recorded” adds a separate entry of the source.

Experiments:
recombinant human PD-L1 = recombinant human PD-L1 (Homo sapiens (Human), UniProt Q9NZQ7); experiment: Differential scanning fluorimetry (DSF) thermal denaturation; type: binding; conditions: 100 μM compound, 1% DMSO
Description: DSF was performed in a C1000 Touch thermal cycler equipped with a CFX96 optical reaction module (Bio Rad). For all fluorescence measurements, samples contained recombinant human PD-L1 (ThermoFisher) at 500 μg/ml in phosphate buffered saline (PBS), pH 7.4, 5% (m/v) Mannitol, 5% (m/v) Trehalose, 0.02% (v/v) Tween® 80, 2.5-fold SYPRO® Orange, 1% (v/v) DMSO (Sigma-Aldrich) and 100 μM of each compound. The PCR plate was sealed with Optical-Quality Sealing Tape (Bio-Rad) and centrifuged at 300 g for 5 minutes. The DSF assay was carried out by increasing the temperature from 20 to 90° C., with a 1 second hold time every 0.2° C. and fluorescence acquisition using the FRET channel, after an initial incubation step of 10 minutes at 20° C. Control experiments in the absence of DMSO and/or compounds were routinely performed in each microplate.
Data were processed using CFX Manager Software V3.0 (Bio-Rad) and the GraphPad Prism 7. Temperature scan curves were fitted to a dose-response sigmoid function (Boltzmann equation) and the melting temperature (Tm values) were obtained from the midpoint of the transition. Normalization of the RFU was also performed to prevent distraction due to different maximum and minimum values upon compounds treatment. The RFU values from different data sets were converted to a common scale 0-1, where 0 represents the fluorescence of the native protein and 1 the fluorescence of the denatured protein. To monitor the binding properties towards each compound, DSF assays were run in the absence and presence of 100 μM compounds using 1% (v/v) DMSO as vehicle control.
To test this hypothesis, the melting temperature (Tm) of the PD-L1 was determined in thermal denaturation assays by differential scanning fluorimetry (DSF) and checked for a shift in the proteins' Tm (ΔTm) in the presence of the PD-L1 inhibitor candidates. The extent of temperature shift is proportional to the compounds' stabilizing effect and thereby used to infer inhibitors' affinity.

[1] = test system: PD-1/PD-L1 interaction on A375 cells; experiment: Cell-based PD-1/PD-L1 inhibition (accessible PD-L1 by flow cytometry), A375; parameters: species or system human; conditions: Homo sapiens, A-375; A375 stimulated with IFN-γ; 72 hours
Description: PD-1/PD-L1 Inhibition on Human Melanoma and Breast Cancer Cell Lines:
Cells (0.1×10^6 cells) were tested for PD-1/PD-L1 inhibition by co-incubation of hit compounds, DMSO (background), BMS-202 (Selleckchem) and anti-human PD-L1 (BioxCell, Clone 29E.2A3) (positive controls) for 72 hours in 2 ml DMEM medium. Non-confluent cell cultures were scraped into single-cell suspension, washed with PBS, and counted. Cells were subsequently stained with PD-1 fluorescent proxy for 30 minutes at 4° C., washed twice and resuspended in FACS buffer. Cells were analyzed using BD LSRFortessa (BD Biosciences) and data analyzed with FlowJo software for Mac (FlowJo, LLC 2013-2016). Mean fluorescence intensity (MFI) was derived from each sample. The PD-1/PD-L1 inhibition in cells was measured by a decrease in MFI relative to background.
The remaining accessible PD-L1 was determined by flow cytometry.

[2] = test system: MC38 expressing human PD-L1 (MC38-hPD-L1); experiment: MC38-hPD-L1 tumor model in humanized PD-1 mice; type: in vivo
Description: Male C57BL/6N-Pdcd1tm1^(huPDCD1-ICP11)Geno humanized for PD-1 (6 weeks old) were purchased from genOway and housed in an animal facility.
Male C57BL/6N humanized PD-1 mice were implanted with 1×10^6 MC38 cells expressing humanized PD-L1 (MC38-hPD-L1) subcutaneously in the right flank. Twelve days later, when tumor volumes reached approx. 60 mm^3 (40-110 mm^3) as measured by digital caliper, animals were randomized into the three treatment groups (n=6 per group). Compound 69 was administered via intraperitoneal (i.p.) injection at 10 mg/kg for 10 daily doses between study days 12 and 22. Similarly, vehicle control (5% (v/v) DMSO, 30% (v/v) polyethylene glycol (PEG) 300, 5% (v/v) Tween® 80, and double distilled (dd) H2O) was administered. The αPD-L1 antibody Atezolizumab was administered via i.p. injection at 10 mg/kg thrice weekly between study days 12 and 22. The tumor size and body weight were measured every 3 days. The tumor volume was determined by X^2Y0.5 (X, small diameter; Y, large diameter).
At day 30, the mice were euthanized, and MC38 tumors and spleens were collected. Tumor and spleen single-cell suspensions were obtained by mechanical disruption of the tissues. […] The obtained single-cell suspensions were then stained with fluorochrome-labelled antibodies and analyzed using a Cytek Aurora (Cytek) and FlowJo software (TreeStar). […]

recombinant human PD-L1, sequence (Q9NZQ7 19-238): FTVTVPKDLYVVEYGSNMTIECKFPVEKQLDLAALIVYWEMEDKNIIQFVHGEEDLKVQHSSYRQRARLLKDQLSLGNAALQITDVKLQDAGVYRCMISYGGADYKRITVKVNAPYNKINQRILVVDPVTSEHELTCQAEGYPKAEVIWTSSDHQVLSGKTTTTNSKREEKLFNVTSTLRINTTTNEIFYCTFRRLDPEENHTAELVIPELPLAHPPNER

SMILES: CCCCCN(CCCCC)C(C)C(=O)c1cc(C)c2ccc3cc(C(C)C)ccc3c2c1.Cl (stereo not shown) [Compound 69]
- thermal shift / stabilization of PD-L1 (recombinant human PD-L1): stabilization of PD-L1
- IC50 [1]: 1000 nM
- tumor volume reduction relative to vehicle control ([2]; 10 mg/kg i.p., 10 daily doses): 93.6%
- cytotoxic CD8+ tumor-infiltrating lymphocytes ([2]; tumors isolated at day 30, flow cytometry): significant increase; also recorded: significantly outperformed the monoclonal antibody
